In brackets after ≈: the same amount, converted by molar mass.

By MIC is commonly meant the smallest concentration in the dilution series that meets the test's criterion for growth inhibition.

For experiment [1], the system named is E. coli strain 25922. The experiment can be described thus: MIC by broth microdilution, E. coli strain 25922. As to conditions: Escherichia coli, 25922, E. coli strain 25922; read-out: Ec 25922 (MIC). The format is cell-based. On the procedure: (§1) Bacterial isolates were cultivated from −70° C. frozen stocks by two consecutive overnight passages at 35° C. in ambient air on 5% blood agar (Remel, Lenexa, Kans.). Quality control and P. aeruginosa ATCC 27853) is from the American Type Culture Collection (ATCC; Rockville, Md.) and PAO1 was received from Dr. K. Poole.
Minimal Inhibitory Concentrations (MICs) were determined by the broth microdilution method in accordance with Clinical and Laboratories Institute (CLSI) guidelines. In brief, fresh overnight bacterial cultures were suspended in sterile saline, and adjusted to a 0.5 McFarland turbidity standard. Bacterial suspensions were then diluted in cation adjusted Mueller-Hinton Broth (MHB II; BBL) to yield a final inoculum of approximately 5×10^5 colony-forming units (CFU)/mL. A master plate of antibiotics was prepared at a concentration equivalent to hundred-fold the highest desired final concentration in 100% dimethyl sulfoxide (DMSO). The master antibiotic plate was then diluted by serial twofold dilution with a multichannel pipette. The resulting dilution series of compounds were diluted 1:10 with sterile water leading to a 10% DMSO final concentration. A volume of 10 μL of the drug dilution series was transferred to 96-well assay plates. Assay plates were inoculated with 90 μL of bacterial suspensions and incubated at 35-37° C. for 20 hrs. The assay plates were read using a microtiter plate reader (Molecular Devices) at 600 nm as well as by visual observation with a reading mirror. The lowest concentration of the compound that prevented visible growth was recorded as the MIC. Performance of the assay was monitored by testing aztreonam against laboratory quality control strains in accordance with guidelines of the CLSI.
Background: Dilution methods test growth across graded concentrations, often in twofold steps.

The subject of experiment [2] is E. coli containing KPC-2. As to the kind of experiment: MIC by broth microdilution, E. coli containing KPC-2 (Ec KPC2 Iso). It is filed as cell-based. To be noted: Escherichia coli, read-out: Ec KPC2 Iso (MIC), E. coli containing KPC-2 (carbapenemase from Klebsiella pneumoniae). On the procedure: as §1
Strain NB27273 (BW25113 pspB::Km^r) was obtained from the Keio transposon insertion collection. The strain has the pspB gene replaced by a kanamycin resistance marker (BW25113 pspB::Km^r). This strain was cured of the transposon in pspB via FLP recombinase using published methodology. The resulting strain, BW25113 pspB, was used as a host for multicopy vectors expressing key β-lactamases. Multicopy plasmids directing constitutive expression of β-lactamases were established as follows: Synthetic, codon optimized genes encoding E. coli KPC2 and SHV12 β-lactamases were made by DNA2.0 (Palo Alto, Calif.). Each of the synthetic fragments were designed to contain NotI and NcoI restriction sites at their termini, allowing ligation into a NotI/NcoI digested pET28a(+) derivative for protein expression. […] The codon optimized nucleotide sequences and relevant primer recognition information is shown below:
The PCR products were then digested with XhoI and EcoRI and ligated into similarly digested plasmid pAH63-pstS(BlaP). Plasmid pAH63-pstS(BlaP) is a derivative of plasmid pAH63 (J Bacteriol: 183(21): 6384-6393) made by cloning the TEM-1 (bla) promoter and signal peptide encoding region from plasmid pBAD (J Bacteriol. 1995 July 177(14):4121-30) into plasmid pAH63. This fragment was PCR amplified from pBAD using primer pair E192 (ttca[…]) (SEQ ID NO:13) and E194 ([…]) (SEQ ID NO:14), digested with PstI and BamHI and inserted into similarly digested plasmid pAH63. Therefore, expression of β-lactamases from pAH63-pstS(BlaP) based constructs is constitutive and the signal sequence is provided to direct these proteins to the periplasm. Plasmid pAH63 based vectors are used for insertion into the genome in single copy, however, to provide higher expression levels to allow more sensitive detection of the susceptibility of compounds to the β-lactamases, the expression inserts contained in these vectors were moved to the replicative multicopy vector pBAD-Kan (J Bacteriol. 1995 July 177(14):4121-30). To accomplish this, the inserts encompassing the β-lactamase genes, with the associated TEM promoter and signal sequences, were PCR amplified from their corresponding vectors using primer E269 (ccg[…]) (SEQ ID NO:15) and E202 (aatc[…]) (SEQ ID NO:16) for the KPC2 construct and E204 (aatc[…]) (SEQ ID NO:17) for the SHV12 construct. These fragments were then digested with XbaI and EcoRI, and each was inserted into pBAD18-kan that had been digested with the same enzymes to generate a pair of multicopy vectors expressing KPC2 and SHV12 respectively. These vectors were transformed into BW25113 pspB to generate strains NB27273-CDY0033 (expressing KPC2) and NB27273-CDY0030 (expressing SHV12). The pBAD18-kan vector also contains the TEM promoter region and signal sequence, (but lacks any intact β-lactamase genes) and was transformed into BW25113 pspB using standard protocols to generate the control strain NB27273-CDY0026. Expression of the β-lactamases was confirmed by verifying decreased susceptibility to example test antibiotics that are known substrates of KPC2 or SHV12. Susceptibility Testing
Minimal Inhibitory Concentrations (MICs) were determined by the broth microdilution method in accordance with Clinical and Laboratories Institute (CLSI) guidelines. In brief, fresh overnight bacterial cultures were suspended in sterile saline, and adjusted to a 0.5 McFarland turbidity standard. Bacterial suspensions were then diluted in cation adjusted Mueller-Hinton Broth (MHB II; BBL) to yield a final inoculum of approximately 5×10^5 colony-forming units (CFU)/mL. […]

Consider `CC(C)(O/N=C(\C(=O)N[C@@H]1C(=O)N(S(=O)(=O)O)[C@@H]1CN1CCCCC1=O)c1csc(N)n1)C(=O)O` [Example 14, 2-(((Z)-(1-(2-aminothiazol-4-yl)-2-oxo-2-(((3S,4R)-2-oxo-4-((2-oxopiperidin-1-yl)methyl)-1-sulfoazetidin-3-yl)amino)ethylidene)amino)oxy)-2-methylpropanoic acid], for which the MIC in experiment [1] is 16 µg/mL (≈ 30 µM); in experiment [2] it was 8 µg/mL (≈ 15 µM).

In the case of `CC(C)(O/N=C(\C(=O)N[C@@H]1C(=O)N(S(=O)(=O)O)[C@@H]1Cn1ccccc1=O)c1csc(N)n1)C(=O)O` [Example 15, 2-(((Z)-(1-(2-aminothiazol-4-yl)-2-oxo-2-(((3S,4R)-2-oxo-4-((2-oxopyridin-1(2H)-yl)methyl)-1-sulfoazetidin-3-yl)amino)ethylidene)amino)oxy)-2-methylpropanoic acid], the MIC in experiment [1] came out at 16 µg/mL (≈ 30.3 µM); in experiment [2], 8 µg/mL (≈ 15.1 µM).

For the molecule `CC(C)(O/N=C(\C(=O)N[C@@H]1C(=O)N(S(=O)(=O)O)[C@@H]1Cn1cncn1)c1nsc(N)n1)C(=O)O` [Example 16, 2-(((Z)-(2-(((2R,3S)-2-((1H-1,2,4-triazol-1-yl)methyl)-4-oxo-1-sulfoazetidin-3-yl)amino)-1-(5-amino-1,2,4-thiadiazol-3-yl)-2-oxoethylidene)amino)oxy)-2-methylpropanoic acid], the MIC in experiment [1] worked out at 4 µg/mL (≈ 7.94 µM); in experiment [2], 2 µg/mL (≈ 3.97 µM).

For `Nc1nc(/C(=N/OCC(=O)O)C(=O)N[C@@H]2C(=O)N(S(=O)(=O)O)[C@@H]2Cn2cncn2)cs1` [Example 17, 2-(((Z)-(2-(((2R,3S)-2-((1H-1,2,4-triazol-1-yl)methyl)-4-oxo-1-sulfoazetidin-3-yl)amino)-1-(2-aminothiazol-4-yl)-2-oxoethylidene)amino)oxy)acetic acid], the MIC in experiment [1] is 0.5 µg/mL (≈ 1.05 µM); in experiment [2] it was 0.25 µg/mL (≈ 0.527 µM).

For the molecule `Nc1nc(/C(=N/OC2(C(=O)O)CC2)C(=O)N[C@@H]2C(=O)N(S(=O)(=O)O)[C@@H]2Cn2cncn2)cs1` [Example 18, 1-(((Z)-(2-(((2R,3S)-2-((1H-1,2,4-triazol-1-yl)methyl)-4-oxo-1-sulfoazetidin-3-yl)amino)-1-(2-aminothiazol-4-yl)-2-oxoethylidene)amino)oxy)cyclopropanecarboxylic acid], the MIC was 0.5 µg/mL (≈ 0.999 µM) in experiment [1] and 0.25 µg/mL (≈ 0.5 µM) in experiment [2].

Turning to `NCc1cnn(C[C@@H]2[C@H](NC(=O)/C(=N\OC3(C(=O)O)CC3)c3csc(N)n3)C(=O)N2S(=O)(=O)O)n1` [Example 19, 1-(((Z)-(2-(((2R,3S)-2-((4-(aminomethyl)-2H-1,2,3-triazol-2-yl)methyl)-4-oxo-1-sulfoazetidin-3-yl)amino)-1-(2-aminothiazol-4-yl)-2-oxoethylidene)amino)oxy)cyclopropanecarboxylic acid], the MIC in experiment [1] and in experiment [2] was 0.25 µg/mL (≈ 0.472 µM) each time.

For `Nc1nc(/C(=N/OCC(=O)O)C(=O)N[C@@H]2C(=O)N(S(=O)(=O)O)[C@@H]2CN2CCOC2=O)cs1` [Example 21, 2-(((Z)-(1-(2-aminothiazol-4-yl)-2-oxo-2-(((3S,4R)-2-oxo-4-((2-oxooxazolidin-3-yl)methyl)-1-sulfoazetidin-3-yl)amino)ethylidene)amino)oxy)acetic acid], the MIC came out at 0.25 µg/mL (≈ 0.508 µM) in experiment [1] and 0.5 µg/mL (≈ 1.02 µM) in experiment [2].

`C[C@@H]1CN(C[C@@H]2[C@H](NC(=O)/C(=N\OC(C)(C)C(=O)O)c3csc(N)n3)C(=O)N2S(=O)(=O)O)C(=O)O1` [Example 23, 2-(((Z)-(1-(2-aminothiazol-4-yl)-2-(((2R,3S)-2-(((R)-5-methyl-2-oxooxazolidin-3-yl)methyl)-4-oxo-1-sulfoazetidin-3-yl)amino)-2-oxoethylidene)amino)oxy)-2-methylpropanoic acid]: the MIC in experiment [1] was 2 µg/mL (≈ 3.74 µM); in experiment [2], 1 µg/mL (≈ 1.87 µM).

On to `CC(C)(O/N=C(\C(=O)N[C@@H]1C(=O)N(S(=O)(=O)O)[C@@H]1CN1C[C@@H](CNC(=N)N)OC1=O)c1csc(N)n1)C(=O)O` [Example 24, 2-(((Z)-(1-(2-aminothiazol-4-yl)-2-(((2R,3S)-2-(((R)-5-(guanidinomethyl)-2-oxooxazolidin-3-yl)methyl)-4-oxo-1-sulfoazetidin-3-yl)amino)-2-oxoethylidene)amino)oxy)-2-methylpropanoic acid], for which the MIC in experiment [1] is 0.25 µg/mL (≈ 0.423 µM); in experiment [2], 1 µg/mL (≈ 1.69 µM).

Turning to `NC[C@@H]1CN(C[C@@H]2[C@H](NC(=O)/C(=N\OC3(C(=O)O)CC3)c3csc(N)n3)C(=O)N2S(=O)(=O)O)C(=O)O1` [Example 25, 1-(((Z)-(2-(((2R,3S)-2-(((R)-5-(aminomethyl)-2-oxooxazolidin-3-yl)methyl)-4-oxo-1-sulfoazetidin-3-yl)amino)-1-(2-aminothiazol-4-yl)-2-oxoethylidene)amino)oxy)-cyclopropanecarboxylic acid], the MIC in experiment [1] was 0.125 µg/mL (≈ 0.228 µM); in experiment [2], at most 0.06 µg/mL.

As to `N=C(N)NC[C@@H]1CN(C[C@@H]2[C@H](NC(=O)/C(=N\OC3(C(=O)O)CC3)c3csc(N)n3)C(=O)N2S(=O)(=O)O)C(=O)O1` [Example 26, 1-(((Z)-(1-(2-aminothiazol-4-yl)-2-(((2R,3S)-2-(((R)-5-(guanidinomethyl)-2-oxooxazolidin-3-yl)methyl)-4-oxo-1-sulfoazetidin-3-yl)amino)-2-oxoethylidene)amino)oxy)-cyclopropanecarboxylic acid], the figures for the MIC in experiment [1] and in experiment [2] were 0.125 µg/mL (≈ 0.212 µM) and at most 0.06 µg/mL, respectively.

For `NCc1cn(C[C@@H]2[C@H](NC(=O)/C(=N\OC3(C(=O)O)CC3)c3csc(N)n3)C(=O)N2S(=O)(=O)O)nn1` [Example 27, 1-(((Z)-(2-(((2R,3S)-2-((4-(aminomethyl)-1H-1,2,3-triazol-1-yl)methyl)-4-oxo-1-sulfoazetidin-3-yl)amino)-1-(2-aminothiazol-4-yl)-2-oxoethylidene)amino)oxy)cyclopropanecarboxylic acid], the MIC was at most 0.06 µg/mL in experiment [1] and 0.125 µg/mL (≈ 0.236 µM) in experiment [2].

For `C[C@H](O/N=C(\C(=O)N[C@@H]1C(=O)N(S(=O)(=O)O)[C@@H]1Cn1cncn1)c1csc(N)n1)C(=O)O` [Example 29, (S)-2-(((Z)-(2-(((2R,3S)-2-((1H-1,2,4-triazol-1-yl)methyl)-4-oxo-1-sulfoazetidin-3-yl)amino)-1-(2-aminothiazol-4-yl)-2-oxoethylidene)amino)oxy)propanoic acid], the MIC in experiment [1] was 0.25 µg/mL (≈ 0.512 µM); in experiment [2] it was 1 µg/mL (≈ 2.05 µM).

On to `C[C@@H](O/N=C(\C(=O)N[C@@H]1C(=O)N(S(=O)(=O)O)[C@@H]1Cn1cncn1)c1csc(N)n1)C(=O)O` [Example 30, (R)-2-(((Z)-(2-(((2R,3S)-2-((1H-1,2,4-triazol-1-yl)methyl)-4-oxo-1-sulfoazetidin-3-yl)amino)-1-(2-aminothiazol-4-yl)-2-oxoethylidene)amino)oxy)propanoic acid], for which the MIC in experiment [1] and in experiment [2] was 1 µg/mL (≈ 2.05 µM) throughout.

The values above are taken from US10369138B2, “Monobactam organic compounds for the treatment of bacterial infections” (Novartis AG, priority 2014, dated 2019).
